Test results reported in patent US20260297060A1, “COMPOUNDS FOR THE DEGRADATION OF MUTANT BRAF” (C4 THERAPEUTICS, INC., priority 2023, published 2026).

Tested on: A375-NRAS^Q61K cells
Experiment: CTGlo Cell Viability Assay, A375-NRAS^Q61K (A375.11) cells, 96 hours
Format: cell-based, human
Settings: A375.11 (A375-NRAS^Q61K) cells; for Emax: lowest % viability achieved
Summary of the method: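 A375 cells carrying BRAF V600E and NRAS Q61K were seeded at 250 cells/well with a 10-point half-log dose series (max 10 μM final). After 96 h at 37 °C, viability was read as ATP luminescence (CellTiter-Glo), background-subtracted and normalized to DMSO (100%). GI50 from 4-parameter fit; Emax is the lowest % viability.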

CCN(C)S(=O)(=O)Nc1ccc(F)c(Oc2ccc3ncn([C@H]4COC5(CCN(C6CCC(c7ccc(N[C@H]8CCC(=O)NC8=O)cc7F)CC6)CC5)C4)c(=O)c3c2)c1C#N (single isomer, unassigned) [Compound 3]
GI50 (Homo sapiens, 96 h): < 1000 nM | Emax (Homo sapiens, 96 h): < 50%

CC(C)S(=O)(=O)Nc1ccc(F)c(Oc2ccc3ncn([C@H]4COC5(CCN(C6CC7(C6)CN(c6cc8c(cc6F)c(N6CCC(=O)NC6=O)nn8C)C7)CC5)C4)c(=O)c3c2)c1C#N [Compound 134, N-[2-cyano-3-[3-[(3R)-8-[2-[3-(2,4-dioxohexahydropyrimidin-1-yl)-5-fluoro-1-methyl-indazol-6-yl]-2-azaspiro[3.3]heptan-6-yl]-1-oxa-8-azaspiro[4.5]decan-3-yl]-4-oxo-quinazolin-6-yl]oxy-4-fluoro-phenyl]propane-2-sulfonamide]
GI50 (Homo sapiens, 96 h): < 1000 nM | Emax (Homo sapiens, 96 h): 50 to 90%

CC(C)S(=O)(=O)Nc1ccc(F)c(Oc2ccc3ncn([C@H]4COC5(CCN(C6CCC(c7cc8c(cc7F)c(N7CCC(=O)NC7=O)nn8C)CC6)CC5)C4)c(=O)c3c2)c1C#N (single isomer, unassigned) [Compound 87]
GI50 (Homo sapiens, 96 h): < 1000 nM | Emax (Homo sapiens, 96 h): < 50%

CCN(C)S(=O)(=O)Nc1ccc(F)c(Oc2ccc3ncn([C@@H]4COC5(CCN(C6CCC(c7ccc(NC8CCC(=O)NC8=O)cc7F)CC6)CC5)C4)c(=O)c3c2F)c1C#N (single isomer, unassigned) [Compound 52]
GI50: > 10000 nM | Emax (Homo sapiens, 96 h): 50 to 90%

CN(CCO)S(=O)(=O)Nc1ccc(F)c(Oc2ccc3ncn([C@H]4COC5(CCN(C6CCC(c7cc8c(cc7F)c(N7CCC(=O)NC7=O)nn8C)CC6)CC5)C4)c(=O)c3c2)c1C#N (single isomer, unassigned) [Compound 73]
GI50 (Homo sapiens, 96 h): 1000 to 10000 nM | Emax (Homo sapiens, 96 h): < 50%

CCN(C)S(=O)(=O)Nc1ccc(F)c(Oc2ccc3ncn(C4CC5(CCN(C6CCC(c7ccc(NC8CCC(=O)NC8=O)cc7F)CC6)CC5)C4)c(=O)c3c2)c1C#N (single isomer, unassigned) [Compound 6, 6-[2-cyano-3-[[ethyl(methyl)sulfamoyl]amino]-6-fluoro-phenoxy]-3-[7-[4-[4-[(2,6-dioxo-3-piperidyl)amino]-2-fluoro-phenyl]cyclohexyl]-7-azaspiro[3.5]nonan-2-yl]-4-oxo-quinazoline]
GI50 (Homo sapiens, 96 h): < 1000 nM | Emax (Homo sapiens, 96 h): < 50%

CN(CCO)S(=O)(=O)Nc1ccc(F)c(Oc2ccc3ncn(C4CC5(CCN(C6CC7(C6)CN(c6cc8c(cc6F)c(N6CCC(=O)NC6=O)nn8C)C7)CC5)C4)c(=O)c3c2)c1C#N (stereo not drawn) [Compound 151, 6-[2-cyano-6-fluoro-3-[[2-hydroxyethyl(methyl)sulfamoyl]amino]phenoxy]-3-[7-[2-[3-(2,4-dioxohexahydropyrimidin-1-yl)-5-fluoro-1-methyl-indazol-6-yl]-2-azaspiro[3.3]heptan-6-yl]-7-azaspiro[3.5]nonan-2-yl]-4-oxo-quinazoline]
GI50 (Homo sapiens, 96 h): 1000 to 10000 nM | Emax (Homo sapiens, 96 h): > 90%

Cn1nc(N2CCC(=O)NC2=O)c2cc(F)c(C3CCC(N4CCC5(CC4)C[C@@H](n4cnc6ccc(Oc7c(F)ccc(NS(=O)(=O)C8CCCC8)c7C#N)cc6c4=O)CO5)CC3)cc21 (single isomer, unassigned) [Compound 113]
GI50 (Homo sapiens, 96 h): < 1000 nM | Emax (Homo sapiens, 96 h): < 50%

CCN(C)S(=O)(=O)Nc1ccc(F)c(Oc2ccc3ncn(C4CC5(CCN(C6CCC(c7cc8c(cc7F)c(N7CCC(=O)NC7=O)nn8C)CC6F)CC5)C4)c(=O)c3c2)c1F (single isomer, unassigned) [Compound 184]
GI50: 1000 to 10000 nM | Emax (Homo sapiens, 96 h): 50 to 90%

CCN(C)S(=O)(=O)Nc1ccc(F)c(Oc2ccc3ncn(C4CC5(CCN(C6CCC(c7cc8c(cc7F)c(N7CCC(=O)NC7=O)nn8C)CC6)CC5)C4)c(=O)c3c2)c1C#N (single isomer, unassigned) [Compound 8, 6-[2-cyano-3-[[ethyl(methyl)sulfamoyl]amino]-6-fluoro-phenoxy]-3-[7-[4-[3-(2,4-dioxohexahydropyrimidin-1-yl)-5-fluoro-1-methyl-indazol-6-yl]cyclohexyl]-7-azaspiro[3.5]nonan-2-yl]-4-oxo-quinazoline]
GI50 (Homo sapiens, 96 h): < 1000 nM | Emax (Homo sapiens, 96 h): < 50%

CCN(C)S(=O)(=O)Nc1ccc(F)c(Oc2ccc3ncn([C@H]4COC5(CCN(C6CC7(C6)CN(c6ccc(NC8CCC(=O)NC8=O)cc6F)C7)CC5)C4)c(=O)c3c2)c1C#N (stereo partly drawn) [Compound 35, (3R)-3-[6-[2-cyano-3-[[ethyl(methyl)sulfamoyl]amino]-6-fluoro-phenoxy]-4-oxo-quinazolin-3-yl]-8-[2-[4-[(2,6-dioxo-3-piperidyl)amino]-2-fluoro-phenyl]-2-azaspiro[3.3]heptan-6-yl]-1-oxa-8-azaspiro[4.5]decane]
GI50 (Homo sapiens, 96 h): 1000 to 10000 nM | Emax (Homo sapiens, 96 h): 50 to 90%

CCN(C)S(=O)(=O)Nc1ccc(F)c(Oc2ccc3ncn([C@H]4COC5(CCN(C6CCC(c7ccc(NC8CCC(=O)NC8=O)cc7F)CC6)CC5)C4)c(=O)c3c2F)c1C#N (single isomer, unassigned) [Compound 50]
GI50 (Homo sapiens, 96 h): < 1000 nM | Emax (Homo sapiens, 96 h): < 50%

CCN(C)S(=O)(=O)Nc1ccc(F)c(Nc2ccc3ncn([C@H]4COC5(CCN(C6CCC(c7cc8c(cc7F)c(N7CCC(=O)NC7=O)nn8C)CC6)CC5)C4)c(=O)c3c2F)c1C#N (single isomer, unassigned) [Compound 67]
GI50 (Homo sapiens, 96 h): < 1000 nM | Emax (Homo sapiens, 96 h): < 50%

CCN(C)S(=O)(=O)Nc1ccc(F)c(Nc2ccc3ncn([C@H]4COC5(CCN(C6CCC(c7cc8c(cc7F)c(N7CCC(=O)NC7=O)nn8C)CC6)CC5)C4)c(=O)c3c2)c1C#N (single isomer, unassigned) [Compound 64]
GI50: 1000 to 10000 nM | Emax (Homo sapiens, 96 h): 50 to 90%

CO[C@@H]1CCN(S(=O)(=O)Nc2ccc(F)c(Oc3ccc4ncn([C@H]5COC6(CCN(C7CCC(c8cc9c(cc8F)c(N8CCC(=O)NC8=O)nn9C)CC7)CC6)C5)c(=O)c4c3)c2C#N)C1 (single isomer, unassigned) [Compound 100]
GI50 (Homo sapiens, 96 h): < 1000 nM | Emax (Homo sapiens, 96 h): < 50%

CN(CCO)S(=O)(=O)Nc1ccc(F)c(Oc2ccc3ncn(C4CC5(CCN(C6CCC(c7cc8c(cc7F)c(N7CCC(=O)NC7=O)nn8C)CC6)CC5)C4)c(=O)c3c2)c1C#N (single isomer, unassigned) [Compound 81, 6-[2-cyano-6-fluoro-3-[[2-hydroxyethyl(methyl)sulfamoyl]amino]phenoxy]-3-[7-[4-[3-(2,4-dioxohexahydropyrimidin-1-yl)-5-fluoro-1-methyl-indazol-6-yl]cyclohexyl]-7-azaspiro[3.5]nonan-2-yl]-4-oxo-quinazoline]
GI50 (Homo sapiens, 96 h): 1000 to 10000 nM | Emax (Homo sapiens, 96 h): 50 to 90%

CN(CCO)S(=O)(=O)Nc1ccc(F)c(Oc2ccc3ncn([C@H]4COC5(CCN(C6CCC(c7ccc(NC8CCC(=O)NC8=O)cc7F)CC6)CC5)C4)c(=O)c3c2)c1C#N (single isomer, unassigned) [Compound 76]
GI50 (Homo sapiens, 96 h): < 1000 nM | Emax (Homo sapiens, 96 h): < 50%

CO[C@H]1CCN(S(=O)(=O)Nc2ccc(F)c(Oc3ccc4ncn(C5CC6(CCN(C7CCC(c8cc9c(cc8F)c(N8CCC(=O)NC8=O)nn9C)CC7)CC6)C5)c(=O)c4c3)c2C#N)C1 (single isomer, unassigned) [Compound 103]
GI50: > 10000 nM | Emax (Homo sapiens, 96 h): 50 to 90%
